# In US20230201124A1, “LUBRICANT FOR PHARMACEUTICALS AND NUTRACEUTICALS” (JRS Pharma GmbH & Co. KG, priority 2021, published 2023):
# What was measured:
# [1] = Tablet hardness versus compression force of lubricated tablets; format: physicochemical; conditions: for direction of change in tablet hardness: Example 8: lowest level/shortest blend time versus highest level/longest blend time
# Description: Blends consisting of five separate levels of each lubricant type were prepared, with the lubricant blending time set for up to 60 minutes. After the addition of lubricant to the ibuprofen-MCC premix and the initiation of blending, a portion of each blend (enough to make a representative number of tablets) was withdrawn at each of 5 intervals (5, 15, 30, 45 and 60 minutes). […]
# Tablet hardnesses and ejection forces were measure for each variant.
# [2] = Lubricant-API stability of 1:1 aspirin-lubricant blends by NIR spectra; format: physicochemical; conditions: all tested storage conditions, 2 months
# Description: Example 9 is a study which examined the lubricant-API stability of rice bran wax, in comparison with magnesium stearate. Aspirin was chosen as a model API for the study. Magnesium stearate is known to interact unfavorably with aspirin. Aspirin also has a known tendency to convert to salicylic acid in the presence of moisture.
# Aspirin and lubricant were ground together at a 1:1 ratio by weight with a glass mortar and pestle, then portioned into three vials which were labeled for room temperature (ambient) storage or for storage closed or open in a stability chamber at 40° C. and 75% RH. Near-IR (NIR) spectra were obtained periodically over two months of storage under these three different conditions.
# FIG. 22 is an NIR spectra of the study components of Example 9, and provides the following depictions: aspirin (close dash), magnesium stearate (far dash), rice bran wax (solid) and salicylic acid (dotted). Near IR spectra were obtained on a Metrohm 6500 RCA (Rapid Content Analyzer) reflectance NIR (JRS #1219) and a standard normal variate (SNV) pre-processing routine was used to normalize the spectra for comparison.
# [3] = Example 8: lowest level/shortest blend time versus highest level/longest blend time (1.0%, 60 min), at each compression force
Molecule,"tablet hardness ([1]; Example 8: 1% lubricant, 60 minute blend, FIG. 18)","drop in tablet hardness ([1]; Example 8: 15 kN compaction force, 0.125%/5 min versus 1.0%/60 min, FIG. 19) [N]","tablet hardness ([1]; Example 8: highest lubricant level (1.0%), 5 minute blend, FIG. 17)",direction of change in tablet hardness [1],"drop in tablet hardness [1, 3]",interaction between lubricant and aspirin [2]
magnesium stearate,softest tablets,~16,lower tablet hardness values than sodium stearyl fumarate and hydrogenated vegetable oil,drop in tablet hardness,11-20 N,interacts with aspirin
"CCCCCCCCCCCCCCCCCCOC(=O)/C=C/C(=O)[O-].[Na+] [Pruv®, sodium stearyl fumarate]",,,,drop in tablet hardness,< 3 N,
